| Compound | melting point [°C] |
| --- | --- |
| CC(C)CC(C)c1ccccc1NC(=O)c1cn(C)cc1C(F)(F)F (centres unmarked) | 83 to 85 |
| COCn1cc(C(=O)Nc2ccccc2C(C)CC(C)C)c(C(F)(F)F)c1 (centres unmarked) | 75 to 77 |

— US7105565B2 (dated 2006)
